Our source for the IC50 values is patent publication US20240101570A1 (AMGEN INC., priority 2020, published 2024).

One assay has as its system HCT116 MTAP null cells. In words: HCT116 MTAP null cell proliferation / viability (CellTiter-Glo, 6 days). Format: cell-based. To be noted: HCT116-MTAP null, 144 h, HCT116 MTAP null cells, 6 days, CellTiter-Glo; read-out: HCT-116 MTAP null IC50. A digest of the protocol: (§1)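 IC50 values derive from sigmoidal dose-response fits, some with Hill slope fixed at −1 and top constrained to 100%, others from 4-parameter logistic models. They reflect CellTiter-Glo viability after 6 days of compound exposure at up to 10 or 50 μM.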

For a further assay, the system named is HCT116 WT cells. In words: HCT116 WT cell proliferation / viability (CellTiter-Glo, 6 days). Format: cell-based. Particulars: Homo sapiens, HCT-116, 144 h, HCT116 WT cells, 6 days, CellTiter-Glo; read-out: HCT-116 WT IC50. A digest of the protocol: as §1

Turning to `CN(Cc1ccc(C(F)(F)F)nc1)C(=O)c1cc2c3c(c(N)nc2cn1)COC3` [Example 693, 4-amino-N-methyl-N-((6-(trifluoromethyl)-3-pyridinyl)methyl)-1,3-dihydrofuro[3,4-c][1,7]naphthyridine-8-carboxamide], the IC50 was 2020 nM in the assay with HCT116 MTAP null cells and > 10000 nM in the assay with HCT116 WT cells.
On to `CC(C)CN(Cc1ccc(C(F)(F)F)cn1)C(=O)c1ccc2nc(N)c3sccc3c2c1` [Example 637, 4-amino-N-(2-methylpropyl)-N-((5-(trifluoromethyl)-2-pyridinyl)methyl)thieno[2,3-c]quinoline-8-carboxamide], for which the values for the IC50 in the assay on HCT116 MTAP null cells and in the assay with HCT116 WT cells were 212 nM and 3220 nM, respectively.
For `C[C@H](c1ncccn1)N(Cc1ccc(C(F)(F)F)cn1)C(=O)c1ccc2nc(N)c3c(c2c1)CCC3` [Example 610, 4-amino-N-((1R)-1-(2-pyrimidinyl)ethyl)-N-((5-(trifluoromethyl)-2-pyridinyl)methyl)-2,3-dihydro-1H-cyclopenta[c]quinoline-8-carboxamide], the IC50 was 6 nM with HCT116 MTAP null cells and 135 nM in the assay with HCT116 WT cells.
For `CC(C)N(Cc1cnc(C(F)(F)F)cn1)C(=O)c1cc2c3c(c(N)nc2cc1F)COC3` [Example 496, 4-amino-7-fluoro-N-(2-propanyl)-N-((5-(trifluoromethyl)-2-pyrazinyl)methyl)-1,3-dihydrofuro[3,4-c]quinoline-8-carboxamide] the same measures were 1270 nM and 2240 nM.
With `CCOc1ccc(CN(C(=O)c2ccc3nc(N)c4c(c3c2)CO[C@@H]4C)C23CC(C2)C3)nn1` [Example 482, (3R)-4-amino-N-(bicyclo[1.1.1]pentan-1-yl)-N-((6-ethoxy-3-pyridazinyl)methyl)-3-methyl-1,3-dihydrofuro[3,4-c]quinoline-8-carboxamide], the half-inhibitory concentration (IC50) in the assay on HCT116 MTAP null cells stood at 52 nM; in the assay with HCT116 WT cells, 2640 nM.
Consider `C[C@H]1OCc2c1c(N)nc1ccc(C(=O)N(Cc3ccc(C(F)(F)F)cn3)c3cnn(C)c3)cc21` [Example 467, (3R)-4-amino-3-methyl-N-(1-methyl-1H-pyrazol-4-yl)-N-((5-(trifluoromethyl)-2-pyridinyl)methyl)-1,3-dihydrofuro[3,4-c]quinoline-8-carboxamide], for which the 50% inhibitory concentration (IC50) turned out to be 14 nM with HCT116 MTAP null cells and 332 nM with HCT116 WT cells.
With `CCN(Cc1cnc(C(F)(F)F)cn1)C(=O)c1cc2c3c(c(N)nc2cc1F)COC3` [Example 497, 4-amino-N-ethyl-7-fluoro-N-((5-(trifluoromethyl)-2-pyrazinyl)methyl)-1,3-dihydrofuro[3,4-c]quinoline-8-carboxamide], the IC50 was found to be 250 nM in the assay on HCT116 MTAP null cells and 3520 nM with HCT116 WT cells.
On to `CC(C)N(Cc1ccc(Cl)cn1)C(=O)c1ccc2nc(N)c3c(c2c1)COC3` [Example 717, 4-amino-N-((5-chloro-2-pyridinyl)methyl)-N-(2-propanyl)-1,3-dihydrofuro[3,4-c]quinoline-8-carboxamide], for which the values for the IC50 in the assay on HCT116 MTAP null cells and in the assay on HCT116 WT cells were 609 nM and 7760 nM, respectively.
In the case of `C[C@@H](c1ccc(S(F)(F)(F)(F)F)cc1)N(C)C(=O)c1cc2c(cc1F)nc(N)c1cnn(C)c12` (single isomer, unassigned) [Example 869], the IC50 in the assay with HCT116 MTAP null cells was 627 nM; in the assay on HCT116 WT cells, 8430 nM.
On the same counts, the results for `C[C@H](c1ccc(F)cn1)N(C)C(=O)c1cc2c(cc1F)nc(N)c1cnn(C)c12` (single isomer, unassigned) [Example 873] are 66 nM and 7320 nM.
With `C[C@H](c1ccc(C(F)(F)F)nn1)N(C(=O)c1ccc2nc(N)c3c(c2c1)COC3)C1CCC1` [Example 745, 4-amino-N-cyclobutyl-N-((1R)-1-(6-(trifluoromethyl)-3-pyridazinyl)ethyl)-1,3-dihydrofuro[3,4-c]quinoline-8-carboxamide], the 50% inhibitory concentration (IC50) with HCT116 MTAP null cells was 246 nM; with HCT116 WT cells, 14800 nM.
As to `CN(Cc1ccc(C(F)(F)F)cn1)C(=O)c1ccc2nc(N)c3cnn(C)c3c2c1` [Example 567, 4-amino-N,1-dimethyl-N-((5-(trifluoromethyl)-2-pyridinyl)methyl)-1H-pyrazolo[4,3-c]quinoline-8-carboxamide], the half-maximal inhibitory concentration (IC50) with HCT116 MTAP null cells came to 90 nM; with HCT116 WT cells, 6790 nM.
For `C[C@H](c1ncccc1F)N(Cc1ccc(C(F)(F)F)nn1)C(=O)c1cnc2nc(N)c3c(c2c1)CCC3` [Example 628, 6-amino-N-((1R)-1-(3-fluoro-2-pyridinyl)ethyl)-N-((6-(trifluoromethyl)-3-pyridazinyl)methyl)-8,9-dihydro-7H-cyclopenta[c][1,8]naphthyridine-2-carboxamide], the concentration for half-maximal inhibition (IC50) in the assay on HCT116 MTAP null cells turned out to be 119 nM; in the assay on HCT116 WT cells, 1190 nM.
In the case of `CN(Cc1ncc(C(F)(F)F)cc1F)C(=O)c1ccc2nc(N)c3cnn(C)c3c2c1` [Example 527, 4-amino-N-((3-fluoro-5-(trifluoromethyl)-2-pyridinyl)methyl)-N,1-dimethyl-1H-pyrazolo[4,3-c]quinoline-8-carboxamide], the values for the half-maximal inhibitory concentration (IC50) in the assay with HCT116 MTAP null cells and in the assay with HCT116 WT cells were 183 nM and 13500 nM, respectively.
Consider `CC(C)N(C(=O)c1cc2c3c(c(N)nc2cn1)COC3)[C@@H](C)c1ccc(C(F)(F)F)cn1` (single isomer, unassigned) [Example 847], for which the half-inhibitory concentration (IC50) in the assay on HCT116 MTAP null cells was determined as 1860 nM; with HCT116 WT cells it was 36000 nM.
As for `C[C@H](c1ccc(C(F)(F)F)cc1)N(C)C(=O)c1cc2c3c(c(N)nc2cc1F)[C@@H](C)OC3` (single isomer, unassigned) [Example 860], the half-inhibitory concentration (IC50) was 17 nM with HCT116 MTAP null cells and 849 nM with HCT116 WT cells.
As for `C[C@@H](c1ccc(C(F)(F)F)nn1)N(C(=O)c1cc2c(cc1F)nc(N)c1cnn(C)c12)C1CC1` (single isomer, unassigned) [Example 877], the IC50 with HCT116 MTAP null cells worked out at 756 nM; in the assay with HCT116 WT cells it was 44100 nM.
With `CC(C)N(Cc1ccc(Br)nn1)C(=O)c1cc2c3c(c(N)nc2cn1)COC3` [Example 684, 4-amino-N-((6-bromo-3-pyridazinyl)methyl)-N-(2-propanyl)-1,3-dihydrofuro[3,4-c][1,7]naphthyridine-8-carboxamide], the figures for the IC50 in the assay on HCT116 MTAP null cells and with HCT116 WT cells were 342 nM and > 10000 nM, respectively.
Turning to `CCN(Cc1ccc(C(F)(F)F)cn1)C(=O)c1ccc2nc(N)c3c(c2c1)COC3C` (stereo not drawn) [Example 930, 4-amino-N-ethyl-3-methyl-N-((5-(trifluoromethyl)pyridin-2-yl)methyl)-1,3-dihydrofuro[3,4-c]quinoline-8-carboxamide], the concentration for half-maximal inhibition (IC50) in the assay on HCT116 MTAP null cells was 61 nM; in the assay with HCT116 WT cells, > 10000 nM.
`CCN(Cc1ccc(Cl)cn1)C(=O)c1cc2c3c(c(N)nc2cn1)COC3` [Example 698, 4-amino-N-((5-chloro-2-pyridinyl)methyl)-N-ethyl-1,3-dihydrofuro[3,4-c][1,7]naphthyridine-8-carboxamide]: the IC50 is 206 nM in the assay on HCT116 MTAP null cells and 4500 nM in the assay with HCT116 WT cells.
With `CN(Cc1ncc(C(F)(F)F)cc1F)C(=O)c1cc2c3c(c(N)nc2cc1F)COC3` [Example 528, 4-amino-7-fluoro-N-((3-fluoro-5-(trifluoromethyl)-2-pyridinyl)methyl)-N-methyl-1,3-dihydrofuro[3,4-c]quinoline-8-carboxamide], the IC50 with HCT116 MTAP null cells worked out at 111 nM; in the assay with HCT116 WT cells it was 5420 nM.
In the case of `CCN(Cc1ccc(C(F)(F)F)cn1)C(=O)c1cc2c3c(c(N)nc2cc1F)[C@@H](C)OC3` [Example 556, (3R)-4-amino-N-ethyl-7-fluoro-3-methyl-N-((5-(trifluoromethyl)-2-pyridinyl)methyl)-1,3-dihydrofuro[3,4-c]quinoline-8-carboxamide], the values for the half-inhibitory concentration (IC50) in the assay on HCT116 MTAP null cells and with HCT116 WT cells were 14 nM and 458 nM, respectively.
On the same counts, the results for `COCC(C1CC1)N(Cc1ccc(Br)nn1)C(=O)c1ccc2nc(N)c3sccc3c2c1` (racemic) [Example 639, 4-amino-N-((6-bromo-3-pyridazinyl)methyl)-N-((1R)-1-cyclopropyl-2-methoxyethyl)thieno[2,3-c]quinoline-8-carboxamide and 4-amino-N-((6-bromo-3-pyridazinyl)methyl)-N-((1S)-1-cyclopropyl-2-methoxyethyl)thieno[2,3-c]quinoline-8-carboxamide] are 238 nM and 3150 nM.
Regarding `CC(C)N(Cc1ccc(C(F)(F)F)cn1)C(=O)c1ccc2nc(N)c3c(c2c1)CO[C@@H]3C` [Example 384, (3R)-4-amino-3-methyl-N-(2-propanyl)-N-((5-(trifluoromethyl)-2-pyridinyl)methyl)-1,3-dihydrofuro[3,4-c]quinoline-8-carboxamide], the figures for the concentration for half-maximal inhibition (IC50) in the assay with HCT116 MTAP null cells and in the assay with HCT116 WT cells were 53 nM and 1380 nM, respectively.
For `CN(Cc1ccc(Br)cn1)C(=O)c1ccc2nc(N)c3c(c2c1)COC3` [Example 330, 4-amino-N-((5-bromo-2-pyridinyl)methyl)-N-methyl-1,3-dihydrofuro[3,4-c]quinoline-8-carboxamide], the figures for the half-maximal inhibitory concentration (IC50) with HCT116 MTAP null cells and in the assay on HCT116 WT cells were 204 nM and > 10000 nM, respectively.
Turning to `COCC(C)N(Cc1ccc(C(F)(F)F)nn1)C(=O)c1ccc2nc(N)c3c(c2c1)CO[C@@H]3C` (mixture of isomers) [Example 304, (3R)-4-amino-N-((2R)-1-methoxy-2-propanyl)-3-methyl-N-((6-(trifluoromethyl)-3-pyridazinyl)methyl)-1,3-dihydrofuro[3,4-c]quinoline-8-carboxamide and (3R)-4-amino-N-((2S)-1-methoxy-2-propanyl)-3-methyl-N-((6-(trifluoromethyl)-3-pyridazinyl)methyl)-1,3-dihydrofuro[3,4-c]quinoline-8-carboxamide], the figures for the IC50 with HCT116 MTAP null cells and in the assay with HCT116 WT cells were 26 nM and 352 nM, respectively.
As for `CC(C)N(C(=O)c1cc2c3c(c(N)nc2cc1F)COC3)[C@H](C)c1ccc(C(F)(F)F)cn1` (single isomer, unassigned) [Example 842], the results for the IC50 in the assay on HCT116 MTAP null cells and in the assay on HCT116 WT cells were 115 nM and 3280 nM, respectively.
